Experimental data published in BindingDB's records for doi:10.1016/S0960-894X(01)80395-4 (1994).

Biological target: Arachidonate 5-lipoxygenase (Cavia porcellus)
Assay: Inhibitory activity against 5-lipoxygenase in guinea pig leukocytes was determined

SMILES	IC50
Cc1ccnc(N2CCN(CCC3Cn4c(-c5cc(C)c(O)c(C)c5)c(C)c5cc(O)cc(c54)O3)CC2)c1 (configuration not stated) [5-(4-Hydroxy-3,5-dimethyl-phenyl)-6-methyl-2-{2-[4-(4-methyl-pyridin-2-yl)-piperazin-1-yl]-ethyl}-2,3-dihydro-[1,4]oxazino[2,3,4-hi]indol-8-ol]	180 nM
COc1ccc2[nH]c(-c3cc(C)c(O)c(C)c3)c(C)c2c1 [TZI-41127]	240 nM
